Test results from PMC8746528, “Novel Substituted Purine Isosteres: Synthesis, Structure-Activity Relationships and Cytotoxic Activity Evaluation” (Molecules, 2021).

Tests used:
[1] = system: PC-3 prostate cancer cell line; experiment: MTT cell viability assay, PC-3; assay type: cell-based; conditions: Homo sapiens, treatment 72 h and 96 h, mean ± SD of three experiments
Description: (§1) The human HCT116 colon cancer cell line and PC-3 prostate cancer cell line were obtained from the American Type Cell Culture (ATCC, Bethesda, Md). Both cell lines were grown in 75 cm^2 culture flasks at 37 °C in 5% CO2 using Roswell Park Memorial Institute 1640 medium (RPMI 1640, Gibco) and Dulbecco’s modified Eagle’s medium F/12 (DMEM/F-12, Gibco), respectively, containing 10% fetal bovine serum (FBS, Gibco). To test the inhibitory activities of compounds using a cell-based assay, MTT assay was performed for cell viability, as described previously. Briefly, HCT116 cells were plated at a density of 1500 per well, while PC-3 cells were plated at a density of 750 per well in a 96-well plate. After 24 h, cells were treated with the indicated compounds in a dose-dependent manner for 72 h and 96 h (all tested compounds provided clear solutions). MTT [3-(4,5-dimethylthiazol-2-yl)-2,5-diphenyltetrazolium bromide] (Sigma M-5655) was added at a final concentration of 0.5 mg/mL directly to each well for 4 h at 37 °C. The medium was aspirated, and the blue MTT formazan precipitate was dissolved in dimethyl sulfoxide (DMSO). Absorbance was determined in a Powerwave microplate spectrophotometer (Biotek Instruments, Inc.) at 540 nm. Viable cell numbers were determined by tetrazolium conversion to its formazan dye. The IC50 was calculated by Microsoft Excel equation and confirmed by GraphPad Prism (7.0). Each experiment was performed in triplicate and mean values ± SD are reported.

PC-3 cells [2] = experiment: DNA staining (propidium iodide) and flow cytometric cell cycle analysis; assay type: cell-based, human; conditions: PC-3, 72 h; for Cell cycle phase distribution G0/G1 / Cell cycle phase distribution G2/M / Cell cycle phase distribution S: compound at its IC50
Description: (§2) For cell cycle analysis, cell culture supernatants and attached cells were collected, centrifuged, washed in PBS, fixed in 50% ethanol and stained with an RNase-containing propidium iodide solution (50 μg/mL) (all reagents from Sigma). For cell apoptosis assay, cells were harvested and stained with Annexin V binding buffer, Annexin V–FITC and 7-AAD (Annexin V-FITC Apoptosis Detection Kit, BD Systems). DNA content was analyzed on a BD Accuri C6 Flow Cytometer using the BD CSampler software (BD Biosciences, USA). Non-apoptotic events were used to calculate the percentage of cells distributed in each phase. A p value < 0.05 was considered to be statistically significant (Student’s t-test).

[3] = system: HCT116 colon cancer cell line; experiment: MTT cell viability assay, HCT116; assay type: cell-based; conditions: Homo sapiens, HCT-116, treatment 72 h and 96 h, mean ± SD of three experiments
Description: as §1

[4] = system: normal human fibroblasts (WI-38); experiment: MTT cytotoxicity towards normal fibroblasts; assay type: cell-based; conditions: for Selectivity Index HCT116: SI = IC50 non cancer cell (WI-38)/IC50 cancer cell (HCT116); for Selectivity Index PC-3: SI = IC50 non cancer cell (WI-38)/IC50 cancer cell (PC-3); for cytotoxicity to normal cells in words / IC50: WI-38; for IC50: MTT, normal human fibroblasts
Description: as §1
Figure 1 Dose-response curves for the administration of 14b, 26b, 35b on HCT116, PC-3 and WI-38 cells, as assessed by the MTT assay. Results are expressed as a percentage of controls. Statistical analysis was performed in triplicate determination at p < 0.05.

PC-3 cells [5] = experiment: Annexin V-7AAD apoptosis assay; assay type: cell-based, human; conditions: PC-3, 72 h, compound at its IC50, AnnexinV-7AAD staining; vehicle 3.5%
Description: as §2

[6] = system: a variety of cancer cell lines; set-up: method as in PMID 27720292; conditions: cited from earlier work

Fc1cccc(-c2c[nH]c3c(Nc4ccccc4)nccc23)c1 [14b, 3-(3-Fluorophenyl)-Ν-phenyl-1H-pyrrolo[2,3-c]pyridin-7-amine]
IC50 [1]: 55 ± 15 nM
melting point: 168 to 169 °C
cell-cycle perturbation in words (PC-3 cells [2]): statistically significant accumulation of PC-3 cells at G2/M phase
Cell cycle phase distribution G0/G1 (PC-3 cells [2]): 48.7 (±0.6) %
Cell cycle phase distribution G2/M (PC-3 cells [2]): 30.8 (±0.8) %
Cell cycle phase distribution S (PC-3 cells [2]): 20.5 (±1.4) %
IC50 [3]: 90 ± 10 nM
Selectivity Index HCT116 [4]: 222
Selectivity Index PC-3 [4]: 363
cytotoxicity to normal cells in words [4]: practically non-toxic against the normal cell line
IC50 [4]: 20 ± 0.4 µM
selectivity index ([4]; normal cell line WI-38 vs both cancer cell lines): higher than 200
apoptotic nuclei (PC-3 cells [5]): 26.5%

Fc1cccc(-c2c[nH]c3c(Nc4ccccc4)ncnc23)c1 [26b, 7-(3-Fluorophenyl)-Ν-phenyl-5H-pyrrolo[3,2-d]pyrimidin-4-amine]
IC50 [1]: 1950 ± 50 nM
melting point: > 250 °C
Cell cycle phase distribution G0/G1 (PC-3 cells [2]): 54.4 (±1.1) %
Cell cycle phase distribution G2/M (PC-3 cells [2]): 24.9 (±1.6) %
Cell cycle phase distribution S (PC-3 cells [2]): 20.7 (±02.7) %
IC50 [3]: 2050 ± 50 nM
Selectivity Index HCT116 [4]: 8.3
Selectivity Index PC-3 [4]: 8.7
cytotoxicity to normal cells in words [4]: non-cytotoxic to the normal cell line
IC50 [4]: 17 ± 1.5 µM
apoptotic nuclei (PC-3 cells [5]): 17.7%

COc1cc(Nc2nccc3c(-c4ccccc4)n[nH]c23)cc(OC)c1OC [3-phenyl-7-(3,4,5-trimethoxyphenyl)aminopyrazolo[3,4-c]pyridine]
IC50 values [6]: medium to high nM range

Fc1cccc(-c2n[nH]c3c(Nc4ccccc4)ncnc23)c1 [35b, 3-(3-Fluorophenyl)-Ν-phenyl-1H-pyrazolo[4,3-d]pyrimidin-7-amine]
IC50 [1]: 550 ± 50 nM
melting point: 237 to 238 °C
Cell cycle phase distribution G0/G1 (PC-3 cells [2]): 58.9 (±0.6) %
Cell cycle phase distribution G2/M (PC-3 cells [2]): 24.9 (±2.4) %
Cell cycle phase distribution S (PC-3 cells [2]): 16.3 (±1.8) %
IC50 [3]: 2300 ± 200 nM
Selectivity Index HCT116 [4]: 5.3
Selectivity Index PC-3 [4]: 22.2
cytotoxicity to normal cells in words [4]: non-cytotoxic to the normal cell line
IC50 [4]: 12.2 ± 1 µM
apoptotic nuclei (PC-3 cells [5]): 11.5%
